Experimental data published in patent publication US7211585B2, “5-HT7 receptor antagonists” (Laboratorios del Dr. Esteve, S.A., priority 2004, dated 2007).
Counter-ions that a name gives are not always drawn.

Molecular target: T1, Cloned Human Serotonin Receptor, subtype 7 (h5HT7) (Homo sapiens, UniProt P34969)
T1 construct: purchased PerkinElmer 6120512; host or cells: CHO cells (membranes coated on Basic FlashPlate, Cat. SMP200)
Assay: Radioligand binding assay, cloned human 5-HT7 receptor in CHO cells, [125I]LSD, Flashplate
Conditions: h5HT7 expressed in CHO cells; [125I]LSD 0.82 nM; triplicate determinations; read-out: 5-HT7 IC-50
Procedure: Biological Assays Radioligand Binding
Radioligand binding assays were performed using the Cloned Human Serotonin Receptor, subtype 7 (h5HT7), expressed in CHO cells, coated on Flashplate (Basic FlashPlate Cat.: SMP200) from PerkinElmer (Cat.: 6120512). The protocol assay was essentially the recommended protocol in the Technical Data Sheet by PerkinEmer Life and Analytical Sciences. The Mass membrane protein/well was typically 12 μg and the Receptor/well was about 9–10 fmoles. The Flashplate were let equilibrate at room temperature for one hour before the addition of the components of the assay mixture. The binding buffer was: 50 mM Trish-CHl, pH 7.4, containing 10 mM MgCl2, 0.5 mM EDTA and 0.5% BSA. The radioligand was [^125I]LSD at a final concentration of 0.82 nM. Nonspecific binding was determined with 50 μM of Clozapine. The assay volume was 25 μl. TopSeal-A were applied onto Flashplate microplates and they were incubated at room temperature for 240 minutes in darkness. The radioactivity were quantified by liquid scintillation spectrophotometry (Wallac 1450 Microbeta Trilux) with a count delay of 4 minutes prior to counting and a counting time of 30 seconds per well. Competition binding data were analyzed by using the LIGAND program (Munson and Rodbard, LIGAND: A versatile, computerized approach for characterization of ligand-binding systems. Anal. Biochem. 107: 220–239, 1980) and assays were performed in triplicate determinations for each point.

T1 sequence (P34969 whole entry): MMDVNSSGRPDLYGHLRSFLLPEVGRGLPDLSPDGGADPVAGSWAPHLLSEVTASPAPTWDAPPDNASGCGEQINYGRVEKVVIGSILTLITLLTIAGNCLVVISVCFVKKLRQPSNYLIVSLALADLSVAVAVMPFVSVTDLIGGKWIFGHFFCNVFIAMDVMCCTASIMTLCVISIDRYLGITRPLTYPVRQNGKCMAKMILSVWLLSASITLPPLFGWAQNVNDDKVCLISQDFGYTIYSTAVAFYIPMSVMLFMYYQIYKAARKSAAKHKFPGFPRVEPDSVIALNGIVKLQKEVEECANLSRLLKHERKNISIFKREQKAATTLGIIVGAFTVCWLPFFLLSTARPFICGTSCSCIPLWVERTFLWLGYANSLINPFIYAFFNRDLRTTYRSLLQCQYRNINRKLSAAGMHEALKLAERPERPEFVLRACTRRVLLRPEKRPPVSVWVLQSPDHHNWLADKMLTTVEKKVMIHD

| Structure (SMILES) | IC50 [nM] |
| --- | --- |
| O=S(=O)(NCCCCN1CCc2ccccc2C1)c1ccccc1 [Compound 5, N-[4-(3,4-Dihydro-1H-isoquinolin-2-yl)-butyl]-benzenesulfonamidehydrochloride] | 33.2 |
| O=S(=O)(NCCCCN1CCc2ccccc2C1)c1cc(F)ccc1F [Compound 140, N-[4-(3,4-Dihydro-1H-isoquinolin-2-yl)-butyl]-2,5-difluoro-benzenesulfonamidehydrochloride] | 60.8 |
| O=S(=O)(NCCCCN1CCc2ccccc2C1)c1ccc2ccccc2c1 [Compound 2, Naphthalene-2-sulfonic acid [4-(3,4-dihydro-1H-isoquinolin-2-yl)-butyl]-amide hydrochloride] | 59.2 |
| COc1cc2c(cc1OC)CN(CCCCNS(=O)(=O)c1cc(Cl)c(F)cc1F)CC2 [Compound 116, 5-Chloro-N-[4-(6,7-dimethoxy-3,4-dihydro-1H-isoquinolin-2-yl)-butyl]-2,4-difluoro-benzenesulfonamide] | 31.1 |
| COc1cc2c(cc1OC)CN(CCCCNS(=O)(=O)c1ccccc1Cl)CC2 [Compound 118, 2-Chloro-N-[4-(6,7-dimethoxy-3,4-dihydro-1H-isoquinolin-2-yl)-butyl]-benzenesulfonamidehydrochloride] | 39.2 |

Now from value to compound:

| IC50 [nM] | Structure (SMILES) |
| --- | --- |
| 39 | COc1cc2c(cc1OC)CN(CCCCNS(=O)(=O)c1cc(F)c(F)cc1Cl)CC2 [Compound 151, 2-Chloro-N-[4-(6,7-dimethoxy-3,4-dihydro-1H-isoquinolin-2-yl)-butyl]-4,5-difluoro-benzenesulfonamidehydrochloride] |
| 74.4 | O=S(=O)(NCCCCN1CCc2ccccc2C1)c1c(F)cc(F)cc1Br [Compound 160, 2-Bromo-N-[4-(3,4-dihydro-1H-isoquinolin-2-yl)-butyl]-4,6-difluoro-benzenesulfonamidehydrochloride] |
| 67.4 | COc1cc2c(cc1OC)CN(CCCCNS(=O)(=O)c1cc(C)c(Cl)cc1C)CC2 [Compound 220, 4-Chloro-N-[4-(6,7-dimethoxy-3,4-dihydro-1H-isoquinolin-2-yl)-butyl]-2,5-dimethyl-benzenesulfonamidehydrochloride] |
| 68.4 | COc1ccc(OC)c(S(=O)(=O)NCCCCN2CCc3cc(OC)c(OC)cc3C2)c1 [Compound 235, N-[4-(6,7-Dimethoxy-3,4-dihydro-1H-isoquinolin-2-yl)-butyl]-2,5-dimethoxy-benzenesulfonamidehydrochloride] |
| 80.4 | O=S(=O)(NCCCCN1CCc2ccccc2C1)c1cc(F)c(F)cc1F [Compound 142, N-[4-(3,4-Dihydro-1H-isoquinolin-2-yl)-butyl]-2,4,5-trifluoro-benzenesulfonamidehydrochloride] |
| 57.2 | COc1cc2c(cc1OC)CN(CCCCNS(=O)(=O)c1ccccc1Br)CC2 [Compound 257, 2-Bromo-N-[4-(6,7-dimethoxy-3,4-dihydro-1H-isoquinolin-2-yl)-butyl]-benzenesulfonamidehydrochloride] |
| 37.3 | COc1cc2c(cc1OC)CN(CCCCNS(=O)(=O)c1cccc(C)c1)CC2 [Compound 210, N-[4-(6,7-Dimethoxy-3,4-dihydro-1H-isoquinolin-2-yl)-butyl]-3-methyl-benzenesulfonamidehydrochloride] |
